# From patent US20260137703A1, “2-AMINO-PYRIDO[2,3-D]PYRIMIDIN-7(8H)-ONE AND 7-AMINO-1-PYRIMIDO[4,5-D]PYRIMIDIN-2(1 H)-ONE DERIVATIVES AS EGFR INHIBITORS FOR THE TREATMENT OF CANCER” (Cancer Research Technology Limited, priority 2022, published 2026)
# Legend:
# [1] = molecular target: T1, Phospho-EGFR (Tyr1068) in H1975 cells (Homo sapiens, UniProt P00533, L858R/T790M); test: HTRF pEGFR/total EGFR in H1975 cells; type: cell-based; conditions: ratio pEGFR/total EGFR, compound 3 hours
# T1 construct: host or cells: H1975
# T1 sequence (P00533 25-1210 T790M/L858R): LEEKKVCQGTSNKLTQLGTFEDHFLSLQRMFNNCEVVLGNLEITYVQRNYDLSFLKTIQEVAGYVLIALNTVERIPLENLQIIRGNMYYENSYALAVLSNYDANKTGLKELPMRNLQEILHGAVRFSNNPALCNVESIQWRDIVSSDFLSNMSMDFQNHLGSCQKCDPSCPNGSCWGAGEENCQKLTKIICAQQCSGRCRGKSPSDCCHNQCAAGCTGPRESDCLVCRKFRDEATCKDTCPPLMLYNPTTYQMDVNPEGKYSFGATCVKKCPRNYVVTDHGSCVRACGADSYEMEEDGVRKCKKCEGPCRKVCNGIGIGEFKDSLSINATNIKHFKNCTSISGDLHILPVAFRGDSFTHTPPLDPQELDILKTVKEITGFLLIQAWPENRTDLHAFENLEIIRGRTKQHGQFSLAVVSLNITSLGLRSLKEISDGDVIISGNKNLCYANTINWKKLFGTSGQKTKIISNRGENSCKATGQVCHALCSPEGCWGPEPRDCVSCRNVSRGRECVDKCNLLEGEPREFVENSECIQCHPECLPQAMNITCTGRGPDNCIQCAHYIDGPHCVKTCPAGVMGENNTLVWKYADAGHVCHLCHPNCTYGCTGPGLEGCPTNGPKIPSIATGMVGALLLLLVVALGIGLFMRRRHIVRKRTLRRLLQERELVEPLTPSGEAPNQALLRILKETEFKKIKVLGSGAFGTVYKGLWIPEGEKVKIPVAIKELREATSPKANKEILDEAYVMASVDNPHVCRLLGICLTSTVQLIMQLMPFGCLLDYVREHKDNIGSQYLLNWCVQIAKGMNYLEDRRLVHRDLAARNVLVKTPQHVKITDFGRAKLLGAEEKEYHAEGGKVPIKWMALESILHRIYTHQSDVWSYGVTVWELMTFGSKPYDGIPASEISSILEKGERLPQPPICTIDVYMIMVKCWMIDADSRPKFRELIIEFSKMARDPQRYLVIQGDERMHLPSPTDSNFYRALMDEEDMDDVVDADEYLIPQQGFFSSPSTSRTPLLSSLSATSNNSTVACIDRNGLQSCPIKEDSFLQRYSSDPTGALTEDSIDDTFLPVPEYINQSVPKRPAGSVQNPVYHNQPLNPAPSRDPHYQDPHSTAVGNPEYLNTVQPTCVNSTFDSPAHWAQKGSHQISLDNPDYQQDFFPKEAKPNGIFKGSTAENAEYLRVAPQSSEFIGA
# Description: (§1) H1975 cells (ATCC CRL-5908) were plated at 20,000 cells per well in 96 well plates and placed at 37° C. 5% CO2. Once adhered (after 24 h) cells were treated with compounds dissolved in DMSO at a final concentration of 0.1% DMSO in media. Compounds were diluted in media then added to cells for 3 hours in duplicate. Compound and media were removed from the cells, then 50 ul of HTRF lysis buffer is added (lysis buffer was diluted from 4× stock to 1× in DI water, with 1% blocking agent also added). Cells were lysed on a plate shaker (2000 rpm) for 30 minutes at room temperature. pEGFR expression was monitored using the Cisbio Phospho-EGFR (Tyri068) cellular kit (64EG1PEH). Total EGFR expression was monitored using the Cisbio Total EGFR cellular kit (64NG1PEH) as per manufacturer's instructions. Fluorescence emission was read at two different wavelengths (665 nm and 620 nm) on a PheraStar. Results were calculated as ratio of pEGFR/total EGFR and then percentage of 0 μM control.
# [2] = molecular target: T2, Phospho-EGFR (Tyr1068) in A431 cells (Homo sapiens, UniProt P00533); test: HTRF pEGFR/total EGFR in A431 cells with EGF stimulation; type: cell-based; conditions: ratio pEGFR/total EGFR, compound 2.5 hours then 100 ng/ml EGF 30 mins
# T2 construct: endogenous in cells; host or cells: A431
# T2 sequence (P00533 25-1210): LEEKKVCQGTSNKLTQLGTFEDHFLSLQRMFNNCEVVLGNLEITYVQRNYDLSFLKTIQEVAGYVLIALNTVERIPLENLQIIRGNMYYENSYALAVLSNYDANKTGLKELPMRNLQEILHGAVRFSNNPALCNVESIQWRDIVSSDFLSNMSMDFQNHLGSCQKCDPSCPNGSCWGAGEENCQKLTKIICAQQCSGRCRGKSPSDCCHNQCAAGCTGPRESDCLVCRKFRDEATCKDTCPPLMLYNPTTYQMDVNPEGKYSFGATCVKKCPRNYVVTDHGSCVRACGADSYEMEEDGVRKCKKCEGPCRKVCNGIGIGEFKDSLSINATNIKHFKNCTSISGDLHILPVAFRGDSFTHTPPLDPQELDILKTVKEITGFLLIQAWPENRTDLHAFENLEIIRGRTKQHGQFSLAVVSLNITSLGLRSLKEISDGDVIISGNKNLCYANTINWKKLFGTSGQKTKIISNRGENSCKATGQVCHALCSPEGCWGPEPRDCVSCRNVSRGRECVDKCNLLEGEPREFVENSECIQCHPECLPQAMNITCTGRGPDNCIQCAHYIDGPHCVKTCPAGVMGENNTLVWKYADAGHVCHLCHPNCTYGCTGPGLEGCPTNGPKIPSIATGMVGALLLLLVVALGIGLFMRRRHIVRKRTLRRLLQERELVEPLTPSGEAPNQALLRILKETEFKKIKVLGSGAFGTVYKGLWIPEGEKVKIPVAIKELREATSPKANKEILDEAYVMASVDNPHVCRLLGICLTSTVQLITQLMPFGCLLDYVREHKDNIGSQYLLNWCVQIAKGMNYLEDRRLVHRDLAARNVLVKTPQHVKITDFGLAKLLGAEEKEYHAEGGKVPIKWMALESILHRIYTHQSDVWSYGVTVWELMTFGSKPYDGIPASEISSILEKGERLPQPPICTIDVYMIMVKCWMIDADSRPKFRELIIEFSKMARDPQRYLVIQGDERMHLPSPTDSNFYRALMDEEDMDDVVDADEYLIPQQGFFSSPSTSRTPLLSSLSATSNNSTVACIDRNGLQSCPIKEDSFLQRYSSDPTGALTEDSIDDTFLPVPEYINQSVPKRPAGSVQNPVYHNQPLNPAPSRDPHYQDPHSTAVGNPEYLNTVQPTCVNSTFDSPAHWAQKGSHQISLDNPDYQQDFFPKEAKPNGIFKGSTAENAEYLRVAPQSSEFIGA
# Description: Cells were plated at 20,000 cells per well in 96 well plates and placed at 37° C. 5% CO2. Once adhered (after 24 h) cells were treated with compounds dissolved in DMSO at a final concentration of 0.1% DMSO in media. Compounds were diluted in media then added to cells for 2.5 hours in duplicate, 100 ng/ml EGF (ThermoFisher, PHG0311) was added to all compound treated cells as well as a control for 30 mins. Compound and media were removed from the cells, then 50 ul of HTRF lysis buffer was added (lysis buffer was diluted from 4× stock to 1× in DI water, with 1% blocking agent also added). Cells were lysed on a plate shaker (2000 rpm) for 30 minutes at room temperature. pEGFR expression was monitored using the Cisbio Phospho-EGFR (Tyr1068) cellular kit (64EG1PEH). Total EGFR expression was monitored using the Cisbio Total EGFR cellular kit (64NG1PEH) as per manufacturer's instructions. Fluorescence emission was read at two different wavelengths (665 nm and 620 nm) on a PheraStar. Results were calculated as ratio of pEGFR/total EGFR and then percentage of 0 μM control.
# [3] = molecular target: T3, Phospho-EGFR (Tyr1068) in H1975 C797S cells (CRISPR-edited EGFR C797S) (Homo sapiens, UniProt P00533, C797S/L858R/T790M); test: HTRF pEGFR/total EGFR in H1975 C797S cells; type: cell-based; conditions: ratio pEGFR/total EGFR, compound 3 hours
# T3 construct: host or cells: H1975 C797S (CRISPR-edited)
# T3 sequence (P00533 25-1210 T790M/C797S/L858R): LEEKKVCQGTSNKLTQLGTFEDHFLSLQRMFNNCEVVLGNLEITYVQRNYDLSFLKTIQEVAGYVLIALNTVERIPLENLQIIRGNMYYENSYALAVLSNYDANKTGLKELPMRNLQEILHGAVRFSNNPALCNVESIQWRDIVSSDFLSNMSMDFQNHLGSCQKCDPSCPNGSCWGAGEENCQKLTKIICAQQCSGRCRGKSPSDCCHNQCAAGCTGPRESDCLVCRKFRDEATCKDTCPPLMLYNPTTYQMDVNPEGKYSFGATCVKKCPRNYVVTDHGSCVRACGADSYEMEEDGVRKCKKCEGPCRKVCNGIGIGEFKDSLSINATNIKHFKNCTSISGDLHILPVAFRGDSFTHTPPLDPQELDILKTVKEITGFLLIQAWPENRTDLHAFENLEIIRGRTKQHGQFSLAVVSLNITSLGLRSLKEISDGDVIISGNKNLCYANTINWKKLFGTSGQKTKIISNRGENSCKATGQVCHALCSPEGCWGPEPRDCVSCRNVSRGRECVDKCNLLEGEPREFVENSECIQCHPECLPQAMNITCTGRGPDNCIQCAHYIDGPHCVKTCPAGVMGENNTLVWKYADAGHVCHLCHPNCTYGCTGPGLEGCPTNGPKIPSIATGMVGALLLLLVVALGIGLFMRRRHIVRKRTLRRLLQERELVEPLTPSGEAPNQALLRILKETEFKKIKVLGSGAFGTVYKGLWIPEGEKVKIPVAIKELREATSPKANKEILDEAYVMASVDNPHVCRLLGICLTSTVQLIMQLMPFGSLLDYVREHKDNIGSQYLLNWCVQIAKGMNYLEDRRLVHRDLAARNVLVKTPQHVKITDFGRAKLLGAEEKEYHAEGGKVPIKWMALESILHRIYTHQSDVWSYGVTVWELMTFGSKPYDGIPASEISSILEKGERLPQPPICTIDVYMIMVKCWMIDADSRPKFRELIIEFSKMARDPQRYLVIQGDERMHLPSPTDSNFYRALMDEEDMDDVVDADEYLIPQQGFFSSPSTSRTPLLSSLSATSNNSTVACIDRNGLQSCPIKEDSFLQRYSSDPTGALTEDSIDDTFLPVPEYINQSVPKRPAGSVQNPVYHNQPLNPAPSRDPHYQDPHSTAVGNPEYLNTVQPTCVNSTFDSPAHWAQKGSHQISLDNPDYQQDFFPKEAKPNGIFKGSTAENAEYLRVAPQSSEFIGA
# Description: as §1, with “[…]. Once” for “H1975 cells (ATCC CRL-5908) were plated at 20,000 cells per well in 96 well plates and placed at 37° C. 5% CO2. Once”, “buffer was” for “buffer is”, “Phospho-EGFR (Tyr1068)” for “Phospho-EGFR (Tyri068)”
# [4] = molecular target: CtermHisTag-mEGFR Wild type (Homo sapiens, UniProt P00533); test: biochemical
# Sequence of CtermHisTag-mEGFR Wild type (P00533 whole entry): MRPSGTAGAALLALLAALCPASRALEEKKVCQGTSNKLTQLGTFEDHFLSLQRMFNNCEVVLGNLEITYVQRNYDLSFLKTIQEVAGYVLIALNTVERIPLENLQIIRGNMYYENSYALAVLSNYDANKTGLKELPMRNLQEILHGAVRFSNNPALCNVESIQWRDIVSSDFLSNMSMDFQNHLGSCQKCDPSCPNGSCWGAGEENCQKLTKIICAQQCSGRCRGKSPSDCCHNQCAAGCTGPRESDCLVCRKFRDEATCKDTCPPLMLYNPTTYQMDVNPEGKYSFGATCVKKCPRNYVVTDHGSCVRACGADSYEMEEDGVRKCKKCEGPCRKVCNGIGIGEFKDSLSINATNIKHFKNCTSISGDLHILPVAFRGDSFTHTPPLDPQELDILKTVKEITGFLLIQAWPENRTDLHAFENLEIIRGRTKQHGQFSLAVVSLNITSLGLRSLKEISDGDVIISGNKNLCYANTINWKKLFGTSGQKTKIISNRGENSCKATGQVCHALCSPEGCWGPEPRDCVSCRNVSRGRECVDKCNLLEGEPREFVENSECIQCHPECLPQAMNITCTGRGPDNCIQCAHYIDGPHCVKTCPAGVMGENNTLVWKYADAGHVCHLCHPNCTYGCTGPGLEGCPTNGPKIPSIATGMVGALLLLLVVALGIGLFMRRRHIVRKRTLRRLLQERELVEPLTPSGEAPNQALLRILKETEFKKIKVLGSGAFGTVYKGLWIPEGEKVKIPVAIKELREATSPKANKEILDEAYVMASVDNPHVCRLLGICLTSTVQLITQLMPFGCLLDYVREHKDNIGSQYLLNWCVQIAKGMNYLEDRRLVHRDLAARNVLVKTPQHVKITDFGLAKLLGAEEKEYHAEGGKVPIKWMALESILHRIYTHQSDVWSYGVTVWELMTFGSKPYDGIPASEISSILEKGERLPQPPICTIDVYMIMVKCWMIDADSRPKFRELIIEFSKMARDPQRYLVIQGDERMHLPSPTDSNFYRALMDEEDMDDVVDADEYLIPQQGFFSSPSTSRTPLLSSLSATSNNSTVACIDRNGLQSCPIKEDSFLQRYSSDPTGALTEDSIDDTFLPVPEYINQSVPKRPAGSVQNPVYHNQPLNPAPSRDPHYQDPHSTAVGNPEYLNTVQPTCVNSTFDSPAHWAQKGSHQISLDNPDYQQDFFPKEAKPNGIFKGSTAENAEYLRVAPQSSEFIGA
SMILES,IC50 [1] [µM],IC50 [2] [µM],IC50 [3] [µM],IC50 [4] [µM]
"C#Cc1cc(=O)n(C)c2nc(Nc3cccc(N(C)C(=O)CN(C)C)c3)ncc12 [Example 53, 2-(Dimethylamino)-N-[3-({5-ethynyl-8-methyl-7-oxopyrido[2,3-d]pyrimidin-2-yl}amino)phenyl]-N-methylacetamide]",> 3,> 3,> 3,1 to 10
"C#Cc1cc(=O)n(-c2cccc([N+](=O)[O-])c2)c2nc(Nc3ccccc3OC)ncc12 [Example 54, 5-Ethynyl-2-((2-methoxyphenyl)amino)-8-(3-nitrophenyl)pyrido[2,3-d]pyrimidin-7(8H)-one]",> 3,> 3,> 3,> 10
"C#Cc1cc(=O)n(-c2cccc(NC(=O)COC(C)=O)c2)c2nc(Nc3ccccc3OC)ncc12 [Example 59, 2-((3-(5-Ethynyl-2-((2-methoxyphenyl)amino)-7-oxopyrido[2,3-d]pyrimidin-8(7H)-yl)phenyl)amino)-2-oxoethyl acetate]",> 3,> 3,> 3,1 to 10
"C#Cc1cc(=O)n(-c2ccc([N+](=O)[O-])cc2)c2nc(Nc3ccccc3OC)ncc12 [Example 60, 5-Ethynyl-2-((2-methoxyphenyl)amino)-8-(4-nitrophenyl)pyrido[2,3-d]pyrimidin-7(8H)-one]",> 3,> 3,> 3,1 to 10
"C#Cc1cc(=O)n(-c2ccc(N)cc2)c2nc(Nc3ccccc3OC)ncc12 [Example 61, 8-(4-Aminophenyl)-5-ethynyl-2-((2-methoxyphenyl)amino)pyrido[2,3-d]pyrimidin-7(8H)-one]",> 3,> 3,> 3,< 1
"C#Cc1cc(=O)n(-c2ccc(NC(C)=O)cc2)c2nc(Nc3ccccc3OC)ncc12 [Example 62, N-(4-(5-Ethynyl-2-((2-methoxyphenyl)amino)-7-oxopyrido[2,3-d]pyrimidin-8(7H)-yl)phenyl)acetamide]",> 3,> 3,> 3,1 to 10
"C#Cc1cc(=O)n(-c2ccc(NS(C)(=O)=O)cc2)c2nc(Nc3ccccc3OC)ncc12 [Example 63, N-(4-(5-Ethynyl-2-((2-methoxyphenyl)amino)-7-oxopyrido[2,3-d]pyrimidin-7(8H)-yl)phenyl)methanesulfonamide]",> 3,> 3,> 3,< 1
"C#Cc1cc(=O)n(-c2ccc(NC(=O)COC(C)=O)cc2)c2nc(Nc3ccccc3OC)ncc12 [Example 64, 2-((4-(5-Ethynyl-2-((2-methoxyphenyl)amino)-7-oxopyrido[2,3-d]pyrimidin-8(7H)-yl)phenyl)amino)-2-oxoethyl acetate]",> 3,> 3,> 3,1 to 10
"C#Cc1cc(=O)n(-c2ccc(NC(=O)CC)cc2)c2nc(Nc3ccccc3OC)ncc12 [Example 65, N-(4-(5-Ethynyl-2-((2-methoxyphenyl)amino)-7-oxopyrido[2,3-d]pyrimidin-7(8H)-yl)phenyl)propionamide]",> 3,> 3,> 3,1 to 10
"C#Cc1cc(=O)n(-c2ccc(NC(=O)C3CC3)cc2)c2nc(Nc3ccccc3OC)ncc12 [Example 66, N-(4-(5-Ethynyl-2-((2-methoxyphenyl)amino)-7-oxopyrido[2,3-d]pyrimidin-8(7H)-yl)phenyl)cyclopropanecarboxamide]",> 3,> 3,> 3,1 to 10

# More lines, now with the values ahead:
IC50 [1] [µM],IC50 [2] [µM],IC50 [3] [µM],IC50 [4] [µM],SMILES
< 0.5,1 to 3,< 0.5,< 1,"C#Cc1cc(=O)n(-c2ccccc2)c2nc(Nc3ccc(N4CCC(N5CC(C(C)(C)O)C5)CC4)cc3)ncc12 [Example 40, 5-Ethynyl-2-[(4-{4-[3-(2-hydroxypropan-2-yl)azetidin-1-yl]piperidin-1-yl}phenyl)amino]-8-phenylpyrido[2,3-d]pyrimidin-7-one]"
< 0.5,> 3,< 0.5,1 to 10,"C#Cc1cc(=O)n(C)c2nc(Nc3ccc(N(C)CCN(C)C)cc3)ncc12 [Example 43, 2-[(4-{[2-(Dimethylamino)ethyl](methyl)amino}phenyl)amino]-5-ethynyl-8-methylpyrido[2,3-d]pyrimidin-7-one]"
0.5 to 1,> 3,1 to 3,< 1,"C#Cc1cc(=O)n(C)c2nc(Nc3cc(-c4cnn(C)c4)c(N4CCOCC4)cc3OC)ncc12 [Example 44, 5-Ethynyl-2-{[2-methoxy-5-(1-methylpyrazol-4-yl)-4-(morpholin-4-yl)phenyl]amino}-8-methylpyrido[2,3-d]pyrimidin-7-one]"
< 0.5,> 3,< 0.5,< 1,"C#Cc1cc(=O)n(C)c2nc(Nc3ccc(N4CCN(C)CC4)cc3)ncc12 [Example 45, 5-Ethynyl-8-methyl-2-{[4-(4-methylpiperazin-1-yl)phenyl]amino}pyrido[2,3-d]pyrimidin-7-one]"
< 0.5,> 3,< 0.5,1 to 10,"C#Cc1cc(=O)n(C)c2nc(Nc3ccc(OCCN(C)C)cc3)ncc12 [Example 46, 2-({4-[2-(Dimethylamino)ethoxy]phenyl}amino)-5-ethynyl-8-methylpyrido[2,3-d]pyrimidin-7-one]"
< 0.5,> 3,0.5 to 1,< 1,"C#Cc1cc(=O)n(C)c2nc(Nc3ccc(N(C)CCN(C)C)c(-c4cnn(C)c4)c3)ncc12 [Example 47, 2-[(4-{[2-(Dimethylamino)ethyl](methyl)amino}-3-(1-methylpyrazol-4-yl)phenyl)amino]-5-ethynyl-8-methylpyrido[2,3-d]pyrimidin-7-one]"
< 0.5,> 3,0.5 to 1,< 1,"C#Cc1cc(=O)n(C)c2nc(Nc3ccc(N4CCN(C)CC4)cc3OC)ncc12 [Example 49, 5-Ethynyl-2-{[2-methoxy-4-(4-methylpiperazin-1-yl)phenyl]amino}-8-methylpyrido[2,3-d]pyrimidin-7-one]"
< 0.5,> 3,0.5 to 1,< 1,"C#Cc1cc(=O)n(C)c2nc(Nc3ccc(N4CCN(C)CC4)c(NC(C)=O)c3)ncc12 [Example 50, N-[5-({5-Ethynyl-8-methyl-7-oxopyrido[2,3-d]pyrimidin-2-yl}amino)-2-(4-methylpiperazin-1-yl)phenyl]acetamide]"
< 0.5,1 to 3,< 0.5,< 1,"C#Cc1cc(=O)n(C)c2nc(Nc3ccc(N4CCN(C)CC4)c(NC(=O)CC)c3)ncc12 [Example 51, N-[5-({5-Ethynyl-8-methyl-7-oxopyrido[2,3-d]pyrimidin-2-yl}amino)-2-(4-methylpiperazin-1-yl)phenyl]propanamide]"
< 0.5,> 3,< 0.5,< 1,"C#Cc1cc(=O)n(C)c2nc(Nc3cccc(N(C)CCN(C)C)c3)ncc12 [Example 52, 2-[(3-{[2-(Dimethylamino)ethyl](methyl)amino}phenyl)amino]-5-ethynyl-8-methylpyrido[2,3-d]pyrimidin-7-one]"
1 to 3,> 3,> 3,1 to 10,"C#Cc1cc(=O)n(-c2cccc(N)c2)c2nc(Nc3ccccc3OC)ncc12 [Example 55, 8-(3-Aminophenyl)-5-ethynyl-2-((2-methoxyphenyl)amino)pyrido[2,3-d]pyrimidin-7(8H)-one]"
